Measured values reported in US11969402B2, “Compositions and methods for skin rejuvenation” (THE JOHNS HOPKINS UNIVERSITY, priority 2019, dated 2024).

Legend:
[1] = tested on: wound tissues of Tlr3−/− mice; experiment: Microarray gene ontology analysis of wound tissue; assay type: in vivo, mouse; settings: Tlr3−/− mice treated with RA
Description: Microarray analysis. RNA isolated from keratinocytes with or without Poly (I:C) (GSE92646) and mouse wound tissues from wild type (C57BL/6NJ) and Tlr3^−/− with BMS493 and RA were submitted to the JHMI Deep Sequencing & Microarray core for Affymetrix® Human Exon 1.0ST and mouse microarray chip according to manufacturer's protocols. Raw gene expression signals in the form of Affymetrix CEL files were extracted and normalized with Partek® Genomics Suite™ software using the Robust Multichip Analysis (RMA) algorithm. Genes were ranked according to fold change of the intervention, and referred to as top or bottom induced if they are at the highest fold change (top) or lowest fold change (bottom). The significance of gene expression was measured by student's t-test analysis. These datasets generated during the current study are available in the NCBI GEO repository as listed above.

wound beds = experiment: Immunostaining of healing wounds; assay type: in vivo, mouse; settings: Tlr3−/− mice
Procedure: Wound Induced Hair Neogenesis (WIHN). All experiments were followed with the present inventors' WIHN protocol^1,9. Briefly, hair was shaved and a 1.2 cm^2 full-thickness skin on the backs of 21-day old (telogen) male and female mice was removed by sterile scissors. A single treatment of RA (30 μl) (0.1 μg per mouse) (Millipore Sigma, R2625) and BMS493 (30 μl) (0.1 μg per mouse) (Cayman Chemical, #17418) was applied topically onto open wound on WD1 of Tlr3^−/− and WT mice, respectively. Poly (I:C) (50 μl) (5 μg per mouse) (Invivogen, tlrl-pic) was injected under the healed scab on WD3 of WT mice as described before^9,34. On WD20-24, numbers of regenerated hair follicles were visualized and quantified in the re-epithelialized skin by non-invasive confocal scanning laser microscopy (CSLM) (Caliber I.D., VIVASCOPE 1500) as published^1,9. As a vehicle (Control), ethanol (EtOH), dimethylsulfoxide (DMSO), or PBS was treated for RA, BMS493, and Poly (I:C), respectively.
Immunofluorescence. […] Fluorescence images were observed by fluorescence microscopy (Leica microsystems), taken pictures with ×100 (low magnification) and ×200 (high magnification), and saved as image files.

`CC1=C(/C=C/C(C)=C/C=C/C(C)=C/C(=O)O)C(C)(C)CCC1` [RA, all-trans-retinoic acid] was tested, and the “gene ontology categories in microarray analysis” value [1] was “substantial enrichment of gene ontology categories pertaining to development and morphogenesis” and the “Krt15 immunostaining in wounds” value (wound beds) was “induces prominent Krt15”.
